Results on two compounds are retold here after patent US12389907B2, “Compounds with nematicidal activity to pinewood nematode Bursaphelenchus xylophilus” (KOREA ADVANCED INSTITUTE OF SCIENCE AND TECHNOLOGY, priority 2023, dated 2025).

This assay relates to pinewood nematode (Bursaphelenchus xylophilus). Put plainly: Nematode screening: mortality of pinewood nematode in 96-well plate, propidium iodide staining. Conditions: compound dissolved in polar solvent DMSO, nematode treated with the solution. It counts as cell-based. On the procedure: Nematode Screening Method and Test Results
(1) A pinewood nematode sample was prepared so that 130 to 150 nematodes were present per 40 μL.
(2) The pinewood nematode sample was dispensed into a 96-well plate by 40 μL. Triplicates were prepared for each sample.
(3) Each compound was dispensed into each well containing the pinewood nematode sample. The tested compounds were (±)-orthosporin and 6,8-dihydroxy-3-methylisocoumarin, and each compound was dissolved in 1% DMSO solvent at a concentration of 20 μM. The chemical formulas of the compounds are illustrated in FIG. 1.
(4) After 120 hours, 20 μL of 50 μM propidium iodide was dispensed into each well containing the sample, and then shaking incubation was performed at RT for 15 minutes.
(5) The mortality rate was evaluated by counting only dead pinewood nematodes stained red in the total number of nematodes using a fluorescence microscope.

In the case of `CC(O)Cc1cc2cc(O)cc(O)c2c(=O)o1` (racemic) [Chemical Formula 3, 6,8-dihydroxy-3-(2-hydroxypropyl)-1H-isochromen-1-one], the “effect of killing the nematode” value is given as “have the effect of killing the nematode”. For the compound `Cc1cc2cc(O)cc(O)c2c(=O)o1` [Chemical Formula 2, 6,8-dihydroxy-3-methyl-1H-isochromen-1-one], the “effect of killing the nematode” value is reported as “have the effect of killing the nematode”.
